The record followed here is patent US10092570B2 (Incyte Corporation, priority 2011, dated 2018).

The target in this assay is PI3Kδ (p110δ/p85α) (Homo sapiens (Human), UniProt O00329). Nature of the assay: Example A3: PI3Kδ scintillation proximity assay. The assay is classed as biochemical. The note with it: scintillation proximity assay, 20 μM ATP, 4 nM PI3Kδ; read-out: PI3Kδ SPA IC50. In outline:
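p110δ/p85α (4 nM) phosphorylated 20 μM PIP2 with 20 μM ATP plus [γ-33P]ATP in MOPS pH 6.7, MgCl2, DTT, CHAPS, 0.5% DMSO, at RT. Stopped with EDTA/excess ATP, product captured on WGA SPA beads overnight and counted; IC50 from percent control activity versus log inhibitor.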

Structures can show the parent of a compound that is named as a salt.

Chain of PI3Kδ (p110δ/p85α) (O00329 whole entry): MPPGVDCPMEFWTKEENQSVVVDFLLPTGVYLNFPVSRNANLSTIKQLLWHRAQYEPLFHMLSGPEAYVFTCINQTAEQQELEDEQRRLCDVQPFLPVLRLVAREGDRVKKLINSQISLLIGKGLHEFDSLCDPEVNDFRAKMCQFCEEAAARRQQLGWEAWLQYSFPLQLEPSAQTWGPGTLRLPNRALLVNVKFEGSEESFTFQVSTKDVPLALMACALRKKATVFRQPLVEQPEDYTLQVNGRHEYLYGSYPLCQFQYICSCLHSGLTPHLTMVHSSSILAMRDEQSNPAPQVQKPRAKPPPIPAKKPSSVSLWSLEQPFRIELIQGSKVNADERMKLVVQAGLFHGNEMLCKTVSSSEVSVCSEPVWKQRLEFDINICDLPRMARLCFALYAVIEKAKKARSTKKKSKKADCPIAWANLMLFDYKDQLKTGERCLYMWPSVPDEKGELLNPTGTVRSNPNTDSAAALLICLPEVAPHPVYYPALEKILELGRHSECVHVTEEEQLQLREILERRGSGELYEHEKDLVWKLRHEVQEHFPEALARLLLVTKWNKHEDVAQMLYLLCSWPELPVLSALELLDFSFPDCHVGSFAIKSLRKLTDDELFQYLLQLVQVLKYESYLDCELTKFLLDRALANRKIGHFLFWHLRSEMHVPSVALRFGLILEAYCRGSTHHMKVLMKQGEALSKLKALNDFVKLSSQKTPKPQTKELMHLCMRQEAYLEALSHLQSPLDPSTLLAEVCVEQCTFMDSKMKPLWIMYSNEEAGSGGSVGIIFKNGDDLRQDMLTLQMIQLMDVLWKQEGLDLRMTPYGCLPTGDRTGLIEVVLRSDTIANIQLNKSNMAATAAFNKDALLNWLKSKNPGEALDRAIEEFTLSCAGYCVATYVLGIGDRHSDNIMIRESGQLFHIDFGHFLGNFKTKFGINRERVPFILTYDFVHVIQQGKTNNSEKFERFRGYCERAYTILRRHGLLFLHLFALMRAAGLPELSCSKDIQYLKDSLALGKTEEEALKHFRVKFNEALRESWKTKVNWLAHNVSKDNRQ
Chain of PI3Kδ (p110δ/p85α) (P27986 whole entry partner): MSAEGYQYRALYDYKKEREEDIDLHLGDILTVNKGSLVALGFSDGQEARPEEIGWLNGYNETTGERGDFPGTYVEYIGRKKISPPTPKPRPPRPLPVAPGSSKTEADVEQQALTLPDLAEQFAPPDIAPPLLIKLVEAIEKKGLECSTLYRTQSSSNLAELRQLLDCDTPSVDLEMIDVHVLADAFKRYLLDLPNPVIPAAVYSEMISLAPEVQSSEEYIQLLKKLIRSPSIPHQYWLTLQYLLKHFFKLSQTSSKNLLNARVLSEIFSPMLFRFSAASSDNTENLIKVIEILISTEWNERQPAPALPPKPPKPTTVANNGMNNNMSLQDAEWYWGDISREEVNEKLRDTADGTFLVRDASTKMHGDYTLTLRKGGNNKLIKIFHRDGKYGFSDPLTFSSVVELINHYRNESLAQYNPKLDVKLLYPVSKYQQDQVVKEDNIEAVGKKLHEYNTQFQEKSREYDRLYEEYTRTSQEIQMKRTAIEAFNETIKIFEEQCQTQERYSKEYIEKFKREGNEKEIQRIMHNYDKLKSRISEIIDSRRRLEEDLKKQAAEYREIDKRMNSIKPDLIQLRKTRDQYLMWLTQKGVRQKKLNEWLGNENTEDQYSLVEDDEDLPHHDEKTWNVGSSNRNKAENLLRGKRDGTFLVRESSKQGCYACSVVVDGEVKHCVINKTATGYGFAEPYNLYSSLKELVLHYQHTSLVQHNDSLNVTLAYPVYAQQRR

In the case of `CCOc1c(C(C)n2ccc(=O)c3c(N)ncnc32)cc(Cl)c(C#N)c1-c1cncc(S(C)(=O)=O)c1` (racemic) [Example 46, 4-(1-(4-amino-5-oxopyrido[2,3-d]pyrimidin-8(5H)-yl)ethyl)-6-chloro-3-ethoxy-2-(5-(methylsulfonyl)pyridin-3-yl)benzonitrile], the IC50 is < 10 nM.

Consider `CCOc1c(C(C)n2nc(C)c3c(N)ncnc32)cc(Cl)c(C#N)c1-c1ccc(C(=O)N(C)C)nc1` (racemic) [Example 44, 5-(3-(1-(4-amino-3-methyl-1H-pyrazolo[3,4-d]pyrimidin-1-yl)ethyl)-5-chloro-6-cyano-2-ethoxyphenyl)-N,N-dimethylpicolinamide], for which the IC50 is < 10 nM.

In the case of `CCOc1c(C(C)n2nc(C)c3c(N)ncnc32)cc(C)c(C#N)c1-c1cnn(C)c1` (racemic) [Example 343, 4-[1-(4-amino-3-methyl-1H-pyrazolo[3,4-d]pyrimidin-1-yl)ethyl]-3-ethoxy-6-methyl-2-(1-methyl-1H-pyrazol-4-yl)benzonitrile], the IC50 was < 10 nM.

On to `COc1c(C(C)n2nc(C(F)F)c3c(N)ncnc32)cc(C#N)c(C)c1C1CN(CC(C)(C)O)C1` (racemic) [Example 133, 5-{1-[4-Amino-3-(difluoromethyl)-1H-pyrazolo[3,4-d]pyrimidin-1-yl]ethyl}-3-[1-(2-hydroxy-2-methylpropyl)azetidin-3-yl]-4-methoxy-2-methylbenzonitrile], for which the 50% inhibitory concentration (IC50) was < 10 nM.

For the molecule `CCOc1c(C(C)n2nc(C)c3c(N)ncnc32)cc(Cl)c(C#N)c1C1CN(C(C)(C)CO)C1` (single isomer, unassigned) [Example 237, 4-[1-(4-Amino-3-methyl-1H-pyrazolo[3,4-d]pyrimidin-1-yl)ethyl]-6-chloro-3-ethoxy-2-[1-(2-hydroxy-1,1-dimethylethyl)azetidin-3-yl]benzonitrile], the IC50 was < 10 nM.

As to `COc1c(C(C)n2nc(C)c3c(N)ncnc32)cc(Cl)c(C)c1C1CN(CC(C)(C)O)C1` (stereo not drawn) [Example 158, 1-(3-{3-[1-(4-Amino-3-methyl-1H-pyrazolo[3,4-d]pyrimidin-1-yl)ethyl]-5-chloro-2-methoxy-6-methylphenyl}azetidin-1-yl)-2-methylpropan-2-ol], the IC50 is < 10 nM.

Consider `CNC(=O)[C@H](C)N1CC(c2c(C)c(C#N)cc(C(C)n3nc(C(F)F)c4c(N)ncnc43)c2OC)C1` (stereo partly drawn) [Example 134, (2S)-2-[3-(3-{1-[4-Amino-3-(difluoromethyl)-1H-pyrazolo[3,4-d]pyrimidin-1-yl]ethyl}-5-cyano-2-methoxy-6-methylphenyl)azetidin-1-yl]-N-methylpropanamide], for which the IC50 is < 10 nM.

`COc1c(C(C)n2nc(C)c3c(N)ncnc32)cc(Cl)c(C#N)c1C1CN(C(=O)NC(C)(C)C)C1` (single isomer, unassigned) [Example 292, 3-{3-[1-(4-Amino-3-methyl-1H-pyrazolo[3,4-d]pyrimidin-1-yl)ethyl]-5-chloro-6-cyano-2-methoxyphenyl}-N-(tert-butyl)azetidine-1-carboxamide]: the half-inhibitory concentration (IC50) is < 10 nM.

Take `CCOc1c(C(C)n2nc(C)c3c(N)ncnc32)cc(Cl)c(C)c1C1CN(C(=O)[C@H](C)O)C1` (stereo partly drawn) [Example 99, (2S)-1-(3-{3-[1-(4-Amino-3-methyl-1H-pyrazolo[3,4-d]pyrimidin-1-yl)ethyl]-5-chloro-2-ethoxy-6-methylphenyl}azetidin-1-yl)-1-oxopropan-2-ol trifluoroacetate]: the IC50 is < 10 nM.

Take `COc1c(C(C)n2nc(C)c3c(N)ncnc32)cc(Cl)c(F)c1C1CN(C)C1` (stereo not drawn) [Example 72]: the IC50 was < 10 nM.

`CCOc1c(C(C)n2nc(C)c3c(N)ncnc32)cc(Cl)c(F)c1C1CN(C[C@H](C)O)C1` (stereo partly drawn) [Example 143, (2S)-1-(3-{3-[1-(4-Amino-3-methyl-1H-pyrazolo[3,4-d]pyrimidin-1-yl)ethyl]-5-chloro-2-ethoxy-6-fluorophenyl}azetidin-1-yl)propan-2-ol]: the IC50 is < 10 nM.

As to `CNC(=O)CCc1c(C)c(Cl)cc(C(C)n2nc(C)c3c(N)ncnc32)c1OC` (single isomer, unassigned) [Example 179, 3-(3-(1-(4-Amino-3-methyl-1H-pyrazolo[3,4-d]pyrimidin-1-yl)ethyl)-5-chloro-2-methoxy-6-methylphenyl)-N-methylpropanamide 2,2,2-trifluoroacetate], the IC50 was < 10 nM.

Consider `CCOc1c(C(C)n2nc(C)c3c(N)ncnc32)cc(Cl)c(C#N)c1-c1cncc(-c2ncco2)c1` (racemic) [Example 339, 4-[1-(4-amino-3-methyl-1H-pyrazolo[3,4-d]pyrimidin-1-yl)ethyl]-6-chloro-3-ethoxy-2-[5-(1,3-oxazol-2-yl)pyridin-3-yl]benzonitrile], for which the IC50 is < 10 nM.

Consider `CCNC(=O)c1c(C)c(Cl)cc(C(C)n2nc(-c3ccc4[nH]ccc4c3)c3c(N)ncnc32)c1OCC` (racemic) [Example 93, 3-{1-[4-Amino-3-(1H-indol-5-yl)-1H-pyrazolo[3,4-d]pyrimidin-1-yl]ethyl}-5-chloro-2-ethoxy-N-ethyl-6-methylbenzamide], for which the concentration for half-maximal inhibition (IC50) is < 10 nM.

For the molecule `COc1c(C(C)n2nc(C)c3c(N)ncnc32)cc(Cl)c(C)c1-c1ccc(C(=O)N(C)C)nc1` (stereo not drawn) [Example 11, 5-{3-[1-(4-Amino-3-methyl-1H-pyrazolo[3,4-d]pyrimidin-1-yl)ethyl]-5-chloro-2-methoxy-6-methylphenyl}-N,N-dimethylpyridine-2-carboxamide bis(trifluoroacetate)], the IC50 was < 10 nM.

For the molecule `COc1c(C(C)n2nc(C)c3c(N)ncnc32)cc(Cl)c(C)c1C1CN(CC(F)(F)F)C1` (single isomer, unassigned) [Example 108, 1-(1-{5-Chloro-2-methoxy-4-methyl-3-[1-(2,2,2-trifluoroethyl)azetidin-3-yl]phenyl}ethyl)-3-methyl-1H-pyrazolo[3,4-d]pyrimidin-4-amine], the concentration for half-maximal inhibition (IC50) was < 10 nM.

As for `COc1c(C(C)n2nc(C)c3c(N)ncnc32)cc(Cl)c(C)c1C1CN(CC(C)C#N)C1` (stereo not drawn) [Example 162, 3-(3-{3-[1-(4-Amino-3-methyl-1H-pyrazolo[3,4-d]pyrimidin-1-yl)ethyl]-5-chloro-2-methoxy-6-methylphenyl}azetidin-1-yl)-2-methylpropanenitrile], the IC50 is < 10 nM.

Regarding `CCOc1c(C(C)n2nc(C)c3c(N)ncnc32)cc(Cl)c(C#N)c1N1CCCC1` (racemic) [Example 318, 4-[1-(4-amino-3-methyl-1H-pyrazolo[3,4-d]pyrimidin-1-yl)ethyl]-6-chloro-3-ethoxy-2-pyrrolidin-1-ylbenzonitrile], the IC50 is < 10 nM.

For the molecule `CCNC(=O)c1c(C)c(Cl)cc(C(C)n2nc(-c3cn[nH]c3)c3c(N)ncnc32)c1OCC` (racemic) [Example 87, 3-{1-[4-Amino-3-(1H-pyrazol-4-yl)-1H-pyrazolo[3,4-d]pyrimidin-1-yl]ethyl}-5-chloro-2-ethoxy-N-ethyl-6-methylbenzamide], the IC50 is < 10 nM.

In the case of `CNC(=O)c1cc(-c2c(C)c(Cl)cc(C(C)n3nc(C)c4c(N)ncnc43)c2OC)ccn1` (racemic) [Example 17, 4-(3-(1-(4-amino-3-methyl-1H-pyrazolo[3,4-d]pyrimidin-1-yl)ethyl)-5-chloro-2-methoxy-6-methylphenyl)-N-methylpicolinamide], the half-maximal inhibitory concentration (IC50) was < 10 nM.

As to `COc1c([C@H](C)n2nc(C)c3c(N)ncnc32)cc(Cl)c(C#N)c1C1CN(C[C@@H](C)O)C1` [Example 362, 4-((S)-1-(4-amino-3-methyl-1H-pyrazolo[3,4-d]pyrimidin-1-yl)ethyl)-6-chloro-2-(1-((R)-2-hydroxypropyl)azetidin-3-yl)-3-methoxybenzonitrile], the IC50 is < 10 nM.

Consider `COc1c(C(C)n2nc(C)c3c(N)ncnc32)cc(Cl)c(C)c1-c1cnn(C2CCN(C)CC2)c1` (single isomer, unassigned) [Example 181, 1-(1-(5-Chloro-2-methoxy-4-methyl-3-(1-(1-methylpiperidin-4-yl)-1H-pyrazol-4-yl)phenyl)ethyl)-3-methyl-1H-pyrazolo[3,4-d]pyrimidin-4-amine], for which the IC50 is < 10 nM.

Consider `COc1c(C(C)n2nc(C)c3c(N)ncnc32)cc(Cl)c(C)c1C1CCN(CC(C)(C)O)CC1` (racemic) [Example 164, 1-(4-{3-[1-(4-Amino-3-methyl-1H-pyrazolo[3,4-d]pyrimidin-1-yl)ethyl]-5-chloro-2-methoxy-6-methylphenyl}piperidin-1-yl)-2-methylpropan-2-ol], for which the IC50 is < 10 nM.

`CCOc1c(C(C)n2nc(C)c3c(N)ncnc32)cc(Cl)c(C)c1C1CN(C(C)C)C1` (stereo not drawn) [Example 94, 1-{1-[5-Chloro-2-ethoxy-3-(1-isopropylazetidin-3-yl)-4-methylphenyl]ethyl}-3-methyl-1H-pyrazolo[3,4-d]pyrimidin-4-amine bis(trifluoroacetate)]: the IC50 is < 10 nM.

Take `CCOc1c(C(C)n2nc(C#C[C@@H](C)O)c3c(N)ncnc32)cc(Cl)c(C)c1-c1ccc(C(=O)N(C)C)nc1` (stereo partly drawn) [Example 79, 5-[3-(1-{4-Amino-3-[(3R)-3-hydroxybut-1-yn-1-yl]-1H-pyrazolo[3,4-d]pyrimidin-1-yl}ethyl)-5-chloro-2-ethoxy-6-methylphenyl]-N,N-dimethylpyridine-2-carboxamide bis(trifluoroacetate)]: the half-maximal inhibitory concentration (IC50) is < 10 nM.

Take `CCNC(=O)c1c(C)c(Cl)cc(C(C)n2nc(-c3ccc4oc(N)nc4c3)c3c(N)ncnc32)c1OCC` (racemic) [Example 89, 3-(1-(4-Amino-3-(2-aminobenzo[d]oxazol-5-yl)-1H-pyrazolo[3,4-d]pyrimidin-1-yl)ethyl)-5-chloro-2-ethoxy-N-ethyl-6-methylbenzamide]: the IC50 is < 10 nM.

Consider `CCOc1c(C(C)n2nc(C)c3c(N)ncnc32)cc(Cl)c(F)c1C1CN(CC(F)(F)F)C1` (racemic) [Example 141, 1-(1-{5-Chloro-2-ethoxy-4-fluoro-3-[1-(2,2,2-trifluoroethyl)azetidin-3-yl]phenyl}ethyl)-3-methyl-1H-pyrazolo[3,4-d]pyrimidin-4-amine], for which the IC50 was < 10 nM.
